Source: ChEMBL document CHEMBL1201862, “PubChem BioAssay data set” (2004)
Activity calls are given as the source filed them.

How the values were obtained:
SUMO-activating enzyme [1] = molecular target: T1, SUMO-activating enzyme (Homo sapiens, UniProt Q9UBT2); assay: SUMOylation inhibitor hit validation, confirmation, SUMOylation inhibitor project, biochemical, AlphaScreen (AID 2018); format: functional
[2] = molecular target: T2, Voltage-gated N-type calcium channel alpha-1B subunit/Amyloid beta A4 precursor protein-binding family A member 1 (Homo sapiens, UniProt Q00975+Q02410); format: protein assay
T2 sequence (Q00975 whole entry): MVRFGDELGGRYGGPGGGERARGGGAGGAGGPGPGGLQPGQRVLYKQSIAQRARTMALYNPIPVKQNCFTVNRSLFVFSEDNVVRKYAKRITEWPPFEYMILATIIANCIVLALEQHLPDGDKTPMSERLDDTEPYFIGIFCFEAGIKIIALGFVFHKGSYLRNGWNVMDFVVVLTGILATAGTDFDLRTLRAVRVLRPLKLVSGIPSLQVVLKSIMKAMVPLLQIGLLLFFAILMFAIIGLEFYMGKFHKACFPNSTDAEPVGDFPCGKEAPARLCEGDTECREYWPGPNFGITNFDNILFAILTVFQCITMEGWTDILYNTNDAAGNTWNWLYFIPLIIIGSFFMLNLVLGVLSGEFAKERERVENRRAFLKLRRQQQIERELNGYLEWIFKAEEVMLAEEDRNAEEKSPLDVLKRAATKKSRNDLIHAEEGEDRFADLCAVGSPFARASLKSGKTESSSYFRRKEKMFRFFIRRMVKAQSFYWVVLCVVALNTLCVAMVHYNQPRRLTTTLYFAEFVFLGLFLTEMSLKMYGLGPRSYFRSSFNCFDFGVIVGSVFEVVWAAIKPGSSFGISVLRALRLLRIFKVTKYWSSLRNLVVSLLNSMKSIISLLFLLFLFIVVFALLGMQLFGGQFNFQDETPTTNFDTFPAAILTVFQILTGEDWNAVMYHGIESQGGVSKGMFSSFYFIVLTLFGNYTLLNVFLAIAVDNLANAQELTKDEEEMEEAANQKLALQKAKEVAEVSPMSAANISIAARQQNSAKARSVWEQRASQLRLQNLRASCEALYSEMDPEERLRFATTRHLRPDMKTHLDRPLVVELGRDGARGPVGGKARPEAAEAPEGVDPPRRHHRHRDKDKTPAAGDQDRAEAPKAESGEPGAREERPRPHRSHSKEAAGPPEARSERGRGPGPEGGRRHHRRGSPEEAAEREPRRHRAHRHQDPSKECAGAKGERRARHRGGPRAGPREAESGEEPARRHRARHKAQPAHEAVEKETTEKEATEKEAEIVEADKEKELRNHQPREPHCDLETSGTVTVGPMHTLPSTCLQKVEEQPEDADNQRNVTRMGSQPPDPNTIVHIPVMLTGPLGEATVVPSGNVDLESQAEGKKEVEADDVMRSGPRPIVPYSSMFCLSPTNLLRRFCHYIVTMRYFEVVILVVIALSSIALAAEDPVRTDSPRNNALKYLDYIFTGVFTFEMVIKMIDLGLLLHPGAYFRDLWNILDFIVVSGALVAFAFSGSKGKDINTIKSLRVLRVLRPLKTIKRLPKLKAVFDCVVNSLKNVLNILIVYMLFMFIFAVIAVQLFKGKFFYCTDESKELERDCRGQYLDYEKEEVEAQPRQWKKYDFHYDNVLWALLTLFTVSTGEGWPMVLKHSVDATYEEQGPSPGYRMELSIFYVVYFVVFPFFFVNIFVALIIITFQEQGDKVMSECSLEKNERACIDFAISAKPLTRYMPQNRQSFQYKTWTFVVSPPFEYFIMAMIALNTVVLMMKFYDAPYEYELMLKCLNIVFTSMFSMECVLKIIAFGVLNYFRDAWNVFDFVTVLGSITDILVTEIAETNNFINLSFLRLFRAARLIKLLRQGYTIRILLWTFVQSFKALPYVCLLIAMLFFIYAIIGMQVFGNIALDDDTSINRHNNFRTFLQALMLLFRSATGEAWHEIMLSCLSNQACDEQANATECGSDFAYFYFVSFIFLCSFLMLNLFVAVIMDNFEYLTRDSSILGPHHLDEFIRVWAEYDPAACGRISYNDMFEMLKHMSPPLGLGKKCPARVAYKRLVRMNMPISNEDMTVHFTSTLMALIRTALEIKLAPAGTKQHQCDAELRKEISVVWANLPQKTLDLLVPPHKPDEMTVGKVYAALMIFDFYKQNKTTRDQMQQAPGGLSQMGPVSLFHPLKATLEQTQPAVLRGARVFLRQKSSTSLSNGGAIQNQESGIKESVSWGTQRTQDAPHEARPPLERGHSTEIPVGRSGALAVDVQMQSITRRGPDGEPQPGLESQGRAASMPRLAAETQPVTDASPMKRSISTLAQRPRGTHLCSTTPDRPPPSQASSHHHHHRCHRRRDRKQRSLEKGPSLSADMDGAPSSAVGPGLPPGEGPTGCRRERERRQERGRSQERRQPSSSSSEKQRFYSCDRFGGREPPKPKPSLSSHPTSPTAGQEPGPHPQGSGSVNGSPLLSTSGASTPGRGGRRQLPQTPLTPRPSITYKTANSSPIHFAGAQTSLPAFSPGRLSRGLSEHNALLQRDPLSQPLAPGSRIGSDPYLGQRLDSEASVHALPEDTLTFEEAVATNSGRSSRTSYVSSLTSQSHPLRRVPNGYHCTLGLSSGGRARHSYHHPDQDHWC
T2 sequence (Q02410 whole entry): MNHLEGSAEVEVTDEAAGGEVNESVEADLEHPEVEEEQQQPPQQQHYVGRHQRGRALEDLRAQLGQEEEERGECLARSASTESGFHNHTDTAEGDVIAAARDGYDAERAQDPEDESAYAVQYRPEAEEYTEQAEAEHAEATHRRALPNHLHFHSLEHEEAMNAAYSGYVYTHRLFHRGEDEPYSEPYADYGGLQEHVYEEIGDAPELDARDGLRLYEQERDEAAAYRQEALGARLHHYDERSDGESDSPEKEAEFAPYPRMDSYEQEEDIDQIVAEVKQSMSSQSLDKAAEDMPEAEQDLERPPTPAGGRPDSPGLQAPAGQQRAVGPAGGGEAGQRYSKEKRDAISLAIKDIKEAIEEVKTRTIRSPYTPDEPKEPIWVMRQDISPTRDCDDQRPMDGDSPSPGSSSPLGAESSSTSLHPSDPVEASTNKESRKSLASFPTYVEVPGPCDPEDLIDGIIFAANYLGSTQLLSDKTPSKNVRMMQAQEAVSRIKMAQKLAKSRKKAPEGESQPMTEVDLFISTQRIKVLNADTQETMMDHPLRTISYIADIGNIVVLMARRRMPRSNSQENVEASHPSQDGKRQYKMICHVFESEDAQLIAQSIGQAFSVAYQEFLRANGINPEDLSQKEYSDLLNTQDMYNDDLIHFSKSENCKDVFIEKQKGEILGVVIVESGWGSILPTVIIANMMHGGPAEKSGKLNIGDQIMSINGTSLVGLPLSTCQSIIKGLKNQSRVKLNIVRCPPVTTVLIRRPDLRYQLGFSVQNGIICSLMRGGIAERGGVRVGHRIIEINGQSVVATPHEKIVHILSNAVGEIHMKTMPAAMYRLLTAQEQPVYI

[3] = molecular target: Epstein-Barr nuclear antigen 1 (Epstein-Barr virus (strain B95-8) (HHV-4) (Human herpesvirus 4), UniProt P03211); assay: EBNA-1 inhibitors, dose response, biochemical, fluorescence polarization, 1536-well (AID 2381); design: species or system human gammaherpesvirus 4;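 note: fluorescence polarization of a Cy5 DNA probe bound by EBNA-1 protein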
SUMO-activating enzyme [4] = molecular target: T1, SUMO-activating enzyme; assay: inhibitors of in vitro SUMOylation cascade, primary screen, biochemical, HTRF, uHTS (AID 2006); format: protein-complex assay
[5] = molecular target: T2, Voltage-gated N-type calcium channel alpha-1B subunit/Amyloid beta A4 precursor protein-binding family A member 1; format: protein assay; remark: listed apart in the source
[6] = molecular target: Lytic switch protein BZLF1 (Epstein-Barr virus (strain B95-8) (HHV-4) (Human herpesvirus 4), UniProt P03206); assay: EBV ZTA inhibitors, dose response, counter-screen for EBNA-1 inhibitor project, biochemical, fluorescence polarization, Epstein-Barr virus, 1536-well (AID 2377); design: species or system human gammaherpesvirus 4;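 note: fluorescence polarization of Cy5-labelled ZRE DNA probe bound by purified Zta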
[7] = molecular target: DNA (cytosine-5)-methyltransferase 1 (Homo sapiens, UniProt P26358); assay: DNMT1 methyltransferase inhibitors, confirmation, biochemical, fluorescent molecular beacon (AID 602386); format: functional
[8] = molecular target: T3, Low molecular weight phosphotyrosine protein phosphatase (Homo sapiens, UniProt P24666); format: functional; conditions: read-out: IC50_Mean;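 note: Dose-response confirmation assay measuring inhibition of LMPTP enzyme activity by fluorescence intensity read-out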
T3 sequence (P24666 whole entry): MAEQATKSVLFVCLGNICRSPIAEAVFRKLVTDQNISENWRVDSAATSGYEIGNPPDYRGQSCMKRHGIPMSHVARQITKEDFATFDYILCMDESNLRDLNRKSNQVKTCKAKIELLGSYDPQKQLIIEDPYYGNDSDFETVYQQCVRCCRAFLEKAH

[9] = molecular target: Signal transducer and activator of transcription 3 (Homo sapiens, UniProt P40763); assay: STAT3 inhibitors, late-stage profile, late-stage follow-up, cell-based, STAT1 panel, qPCR, cytotoxicity, panel member STAT3 Inhibition (AID 2078)
[10] = molecular target: Signal transducer and activator of transcription 1-alpha/beta (Homo sapiens, UniProt P42224); assay: STAT3 inhibitors, late-stage profile, late-stage follow-up, cell-based, STAT1 panel, qPCR, cytotoxicity, panel member STAT1 Inhibition (AID 2078)
Chain of Signal transducer and activator of transcription 1-alpha/beta (P42224 whole entry): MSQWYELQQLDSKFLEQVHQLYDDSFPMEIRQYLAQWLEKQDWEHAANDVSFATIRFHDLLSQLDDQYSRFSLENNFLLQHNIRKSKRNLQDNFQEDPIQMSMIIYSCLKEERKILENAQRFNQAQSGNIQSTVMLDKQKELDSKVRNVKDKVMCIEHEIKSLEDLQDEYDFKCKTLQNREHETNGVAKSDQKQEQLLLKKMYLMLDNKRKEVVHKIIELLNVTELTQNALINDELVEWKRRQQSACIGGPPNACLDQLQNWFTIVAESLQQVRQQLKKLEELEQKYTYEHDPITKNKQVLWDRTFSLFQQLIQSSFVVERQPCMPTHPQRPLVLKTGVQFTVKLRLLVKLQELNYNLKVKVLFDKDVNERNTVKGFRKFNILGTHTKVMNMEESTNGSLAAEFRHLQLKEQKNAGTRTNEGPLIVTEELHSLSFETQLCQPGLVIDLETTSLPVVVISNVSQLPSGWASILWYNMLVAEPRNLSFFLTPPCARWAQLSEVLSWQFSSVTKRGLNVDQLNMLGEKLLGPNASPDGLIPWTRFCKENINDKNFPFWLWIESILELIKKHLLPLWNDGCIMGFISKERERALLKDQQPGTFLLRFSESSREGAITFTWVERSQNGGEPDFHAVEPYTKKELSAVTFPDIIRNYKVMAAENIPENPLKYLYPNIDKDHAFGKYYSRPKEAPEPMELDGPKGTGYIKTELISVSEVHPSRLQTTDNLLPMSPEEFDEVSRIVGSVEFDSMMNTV

T1 sequence (Q9UBE0 whole entry): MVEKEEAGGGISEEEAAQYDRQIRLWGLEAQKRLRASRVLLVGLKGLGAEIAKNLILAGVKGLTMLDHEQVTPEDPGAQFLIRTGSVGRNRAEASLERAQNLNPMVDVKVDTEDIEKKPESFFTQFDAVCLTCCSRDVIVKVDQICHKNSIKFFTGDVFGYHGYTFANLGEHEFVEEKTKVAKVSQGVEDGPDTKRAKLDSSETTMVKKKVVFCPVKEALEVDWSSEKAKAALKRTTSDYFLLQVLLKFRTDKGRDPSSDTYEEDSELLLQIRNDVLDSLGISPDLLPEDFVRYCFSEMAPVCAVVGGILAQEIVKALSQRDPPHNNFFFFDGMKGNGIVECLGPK
T1 sequence (Q9UBT2 whole entry): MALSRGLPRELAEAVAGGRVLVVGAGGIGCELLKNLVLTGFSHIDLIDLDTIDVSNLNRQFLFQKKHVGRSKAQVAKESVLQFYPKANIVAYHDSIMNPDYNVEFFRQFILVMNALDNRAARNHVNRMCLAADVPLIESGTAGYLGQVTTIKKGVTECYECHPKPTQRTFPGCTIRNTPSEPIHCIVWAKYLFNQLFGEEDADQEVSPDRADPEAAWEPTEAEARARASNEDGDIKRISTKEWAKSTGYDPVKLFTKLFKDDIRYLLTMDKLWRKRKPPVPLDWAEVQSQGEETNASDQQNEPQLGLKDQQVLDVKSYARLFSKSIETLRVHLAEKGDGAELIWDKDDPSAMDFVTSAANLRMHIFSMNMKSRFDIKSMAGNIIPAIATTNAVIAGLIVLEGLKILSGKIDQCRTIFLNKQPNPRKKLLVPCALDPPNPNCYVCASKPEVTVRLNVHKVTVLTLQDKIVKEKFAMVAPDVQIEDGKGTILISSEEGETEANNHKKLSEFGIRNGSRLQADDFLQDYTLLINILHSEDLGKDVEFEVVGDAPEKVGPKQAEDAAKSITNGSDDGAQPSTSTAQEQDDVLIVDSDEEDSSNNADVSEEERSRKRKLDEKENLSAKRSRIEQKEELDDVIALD

Row | IC50 (SUMO-activating enzyme [1]) | IC50 [2] | IC50 [3] | IC50 (SUMO-activating enzyme [4]) | IC50 [5] | IC50 [6] | IC50 [7] | IC50 [8] | Compound | IC50 [9] | IC50 [10]
1 | 9.81 µM (active) | 9.71 µM (active) | 14.5 µM (not active) | 8.49 µM (active) | > 50 µM (inactive) | > 111 µM (not active) | 8.43 µM (active) | 9.58 µM (active) | O=C(COc1ccc(/C=N/NC(=O)c2ccc(O)cc2)cc1)Nc1ccc([N+](=O)[O-])cc1 |  | 
2 |  |  |  |  |  |  |  |  | c1ccc(CC2CCN(c3ncnc4sc5c(c34)CCCC5)CC2)cc1 | > 55.7 µM (inactive) | > 55.7 µM (inactive)
